SMILES strings stand for the structures.

In this assay the test system is T1, hair-cell mechano-electrical transducer (MET) channel (native, mouse cochlear outer hair cells).
T1 construct: gene Tmc1; native full-length MET complex in outer hair cells of P2 organotypic cochlear cultures kept 1-2 days in vitro; TMC1 and/or TMC2 pore with TMIE (subunits named only in the discussion; copy numbers from the C. elegans cryo-EM structure it cites); with Transmembrane inner ear expressed protein
The assay is described as follows: whole-cell patch clamp of MET currents, fluid-jet bundle stimulation, fractional block. Type of assay: cell-based. The following applies: -64 mV; extracellular superfusion, 1.3 mM Ca2+, pH 7.48, room temperature; permeant voltage-dependent block.
For the compound `CCCCN(CCCC)c1ccc(/C=C/c2cc[n+](CCC[N+](CC)(CC)CC)cc2)cc1` [compound 13550, FM1-43], the “% block at 10 μM” value is ~ 30%. In the case of `CCCCN(CCCC)c1ccc(/C=C/c2cc[n+](CCCC(=O)OCC)cc2)cc1` [compound 13551, 13551], the “% block at 10 μM” value is given as > 80%. On to `CCCCN(CCCC)c1ccc(/C=C/c2cc[n+](CCCC[N+](CC)(CC)CC)cc2)cc1` [compound 13669, 13669], for which the “% block at 10 μM” value is > 80%. The same measure for `CCCCN(CCCC)c1ccc(/C=C/c2cc[n+](CCCCC[N+](CC)(CC)CC)cc2)cc1` [compound 13667, 13667]: > 80%.
